Test [1] has as its system LNCaP prostate cancer cell. Description: LNCaP cell viability (CellTiter-Glo). The format is cell-based. To be noted: 3 days; for IC50: Homo sapiens, 72 h, LNCaP cell viability, CellTiter-Glo. As for the experimental part:
LNCaP cells seeded in 96-well plates were treated with 10 μM GNE-781 or selected bivalent compounds, i.e. P-001, P-002, and P-019, following a 12-point 3-fold serial dilution. Three days after treatment, cell viability was determined using the CellTiter-Glo kit (Promega) following manufacturer's instructions. Cell viability was normalized to the mean values of 3 replicates of untreated cells. Dose-dependent response was analyzed following the least-squares non-linear regression method using the GraphPad Prism 5.0 software.
LNCaP (clone FGC), 22RV1 and other cells were cultured at 37° C. with 5% CO 2 in RPMI 1640 Medium supplemented with 10% fetal bovine serum. Cells were authenticated using the short tandem repeat (STR) assays. Mycoplasma test results were negative.
Cells were seeded at a density of 5000 cells per well in 96-well assay plates and treated with test compounds following a 12-point 3-fold serial dilution. Three days later, cell viability was determined using the CellTiter-Glo assay kit according to the manufactureR's instructions. The dose-response curves were determined and IC50 values were calculated using the GraphPad Prism software following a nonlinear regression (least squares fit) method.

The target of test [2] is P300 (Homo sapiens, UniProt Q09472). Description: percentage of inhibition (degradation) of p300 at 10 nM, Tables 2-4. The format is cell-based. Further details: LNCaP or 22RV1 cells that express CBP/P300 proteins were treated with GNE-781 or the bivalent compounds; endogenous in cells; host or cells: LNCaP or 22RV1 (not given). To be noted: p300, 10 nM, read-out: Degradation (10 nM). On the procedure:
Cultured cells or tissue chunks were washed with cold PBS once and lysed in cold RIPA buffer supplemented with protease inhibitors and phosphatase inhibitors (Beyotime Biotechnology). The solutions were then incubated at 4° C. for 30 minutes with gentle agitation to fully lyse cells. Cell lysates were centrifuged at 13,000 rpm for 10 minutes at 4° C. and pellets were discarded. Total protein concentrations in the lysates were determined by BCA assays (Beyotime Biotechnology). Cell lysates were mixed with Laemmli loading buffer to 1 X and heated at 99° C. for 5 min. Proteins were resolved on SDS-PAGE and visualized by chemiluminescence. Images were taken by a ChemiDoc MP Imaging system (Bio-Rad). Protein bands were quantitated using the accompanied software provided by Bio-Rad.

Read-outs that look alike come from different tables or passages of the source.

Chain of P300 (Q09472 whole entry): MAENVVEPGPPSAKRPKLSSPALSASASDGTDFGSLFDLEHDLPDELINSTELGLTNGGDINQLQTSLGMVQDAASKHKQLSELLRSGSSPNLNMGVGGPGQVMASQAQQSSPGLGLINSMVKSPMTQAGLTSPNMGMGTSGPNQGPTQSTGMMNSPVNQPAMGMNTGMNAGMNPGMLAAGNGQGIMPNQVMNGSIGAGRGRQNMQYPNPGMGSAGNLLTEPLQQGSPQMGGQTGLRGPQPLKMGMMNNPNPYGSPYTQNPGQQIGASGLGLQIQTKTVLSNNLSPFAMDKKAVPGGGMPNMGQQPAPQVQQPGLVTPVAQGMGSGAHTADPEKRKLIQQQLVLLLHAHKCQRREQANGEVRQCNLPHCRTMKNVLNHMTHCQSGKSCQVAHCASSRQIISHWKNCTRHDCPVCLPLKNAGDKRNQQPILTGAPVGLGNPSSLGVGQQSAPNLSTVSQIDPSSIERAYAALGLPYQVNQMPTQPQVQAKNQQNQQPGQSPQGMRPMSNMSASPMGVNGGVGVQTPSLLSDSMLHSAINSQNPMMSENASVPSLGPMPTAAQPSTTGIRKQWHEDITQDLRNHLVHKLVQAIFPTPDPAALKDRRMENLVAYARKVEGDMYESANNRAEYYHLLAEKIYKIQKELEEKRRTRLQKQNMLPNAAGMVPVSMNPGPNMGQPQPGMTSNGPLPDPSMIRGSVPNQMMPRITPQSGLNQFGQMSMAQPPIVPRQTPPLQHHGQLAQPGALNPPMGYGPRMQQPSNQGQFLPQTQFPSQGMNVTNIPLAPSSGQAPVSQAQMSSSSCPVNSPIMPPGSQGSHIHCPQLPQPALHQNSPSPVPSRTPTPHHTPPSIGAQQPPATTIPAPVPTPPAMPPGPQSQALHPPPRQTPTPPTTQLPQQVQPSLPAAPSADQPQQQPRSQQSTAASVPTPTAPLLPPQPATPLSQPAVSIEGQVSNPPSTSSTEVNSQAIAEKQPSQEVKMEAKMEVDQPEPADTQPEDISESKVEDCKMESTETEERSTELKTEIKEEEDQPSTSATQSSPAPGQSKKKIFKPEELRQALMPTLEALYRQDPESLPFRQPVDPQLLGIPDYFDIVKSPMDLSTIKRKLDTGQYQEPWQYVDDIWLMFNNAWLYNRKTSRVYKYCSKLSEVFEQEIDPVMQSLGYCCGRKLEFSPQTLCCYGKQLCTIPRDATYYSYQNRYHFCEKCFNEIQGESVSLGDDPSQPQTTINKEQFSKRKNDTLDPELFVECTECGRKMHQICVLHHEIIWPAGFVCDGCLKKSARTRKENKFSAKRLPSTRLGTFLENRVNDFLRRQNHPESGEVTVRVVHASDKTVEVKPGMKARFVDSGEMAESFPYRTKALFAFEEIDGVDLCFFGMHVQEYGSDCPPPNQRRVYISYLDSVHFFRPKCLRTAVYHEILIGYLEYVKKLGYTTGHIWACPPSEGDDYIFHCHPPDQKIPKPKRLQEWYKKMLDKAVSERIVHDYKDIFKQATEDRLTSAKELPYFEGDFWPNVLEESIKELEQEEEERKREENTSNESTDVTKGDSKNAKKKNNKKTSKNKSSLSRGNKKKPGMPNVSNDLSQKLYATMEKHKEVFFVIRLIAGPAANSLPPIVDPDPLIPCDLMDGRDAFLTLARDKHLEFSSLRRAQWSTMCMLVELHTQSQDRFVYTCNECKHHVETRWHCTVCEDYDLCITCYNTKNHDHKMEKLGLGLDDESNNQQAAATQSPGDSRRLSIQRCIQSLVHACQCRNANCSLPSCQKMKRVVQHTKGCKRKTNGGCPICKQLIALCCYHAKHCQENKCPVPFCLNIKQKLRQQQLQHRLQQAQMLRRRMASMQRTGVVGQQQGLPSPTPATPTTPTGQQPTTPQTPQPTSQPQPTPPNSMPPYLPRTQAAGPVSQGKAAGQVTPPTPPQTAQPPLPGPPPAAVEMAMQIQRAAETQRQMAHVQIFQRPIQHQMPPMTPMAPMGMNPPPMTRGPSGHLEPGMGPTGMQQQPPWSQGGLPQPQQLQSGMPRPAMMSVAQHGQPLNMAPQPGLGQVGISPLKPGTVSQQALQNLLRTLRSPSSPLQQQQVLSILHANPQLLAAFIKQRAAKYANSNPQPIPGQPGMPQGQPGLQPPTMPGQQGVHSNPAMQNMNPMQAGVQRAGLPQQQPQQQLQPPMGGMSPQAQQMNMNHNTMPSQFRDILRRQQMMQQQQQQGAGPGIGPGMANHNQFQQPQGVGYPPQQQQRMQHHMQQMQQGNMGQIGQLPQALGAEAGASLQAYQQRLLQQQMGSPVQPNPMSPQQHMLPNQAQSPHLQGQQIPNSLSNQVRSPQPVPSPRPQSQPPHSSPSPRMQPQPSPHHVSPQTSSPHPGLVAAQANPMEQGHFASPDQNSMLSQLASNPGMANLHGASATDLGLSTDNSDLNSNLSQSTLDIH

The IC50 is the concentration that inhibits the measured activity by half. High values mean weaker potency, low ones greater potency. On to `CC(=O)N1CCc2c(c(N3CCCc4cc(-c5cnn(C)c5)c(C(F)F)cc43)nn2C2CCN(CCCN3CCC(CCc4ccc5c(c4)n(C)c(=O)n5C4CCC(=O)NC4=O)CC3)CC2)C1` (stereo not drawn) [P-244, 3-(5-(2-(1-(3-(4-(5-acetyl-3-(7-(difluoromethyl)-6-(1-methyl-1H-pyrazol-4-yl)-3,4-dihydroquinolin-1(2H)-yl)-4,5,6,7-tetrahydro-1H-pyrazolo[4,3-c]pyridin-1-yl)piperidin-1-yl)propyl)piperidin-4-yl)ethyl)-3-methyl-2-oxo-2,3-dihydro-1H-benzo[d]imidazol-1-yl)piperidine-2,6-dione], for which, in test [1] (Table 4), half-maximal inhibition (IC50) was put at 0.8 nM. The inhibition at 0.01 µM in test [2] (Table 4) was > 80%.

Turning to `CNC(=O)N1CCc2c(c(N3CCCc4cc(-c5cnn(C)c5)c(C(F)F)cc43)nn2C2CCN(C(=O)CNc3cccc4c3C(=O)N(C3CCC(=O)NC3=O)C4=O)CC2)C1` (stereo not drawn) [P-013, 3-(7-(difluoromethyl)-6-(1-methyl-1H-pyrazol-4-yl)-3,4-dihydroquinolin-1(2H)-yl)-1-(1-((2-(2,6-dioxopiperidin-3-yl)-1,3-dioxoisoindolin-4-yl)glycyl)piperidin-4-yl)-N-methyl-1,4,6,7-tetrahydro-5H-pyrazolo[4,3-c]pyridine-5-carboxamide], the inhibition at 0.01 µM in test [2] (Table 2) was 20 to 50%.

Turning to `CC(=O)N1CCc2c(c(N3CCCc4cc(-c5cnn(C)c5)c(C(F)F)cc43)nn2C2CCN(C(=O)CCCCCCCC(=O)Nc3cccc(NC4CCC(=O)NC4=O)c3)CC2)C1` (stereo not drawn) [P-263, 9-(4-(5-Acetyl-3-(7-(difluoromethyl)-6-(1-methyl-1H-pyrazol-4-yl)-3,4-dihydroquinolin-1(2H)-yl)-4,5,6,7-tetrahydro-1H-pyrazolo[4,3-c]pyridin-1-yl)piperidin-1-yl)-N-(3-((2,6-dioxopiperidin-3-yl)amino)phenyl)-9-oxononanamide], in test [1] (Table 4), the half-maximal inhibitory concentration (IC50) was > 500 nM.

Consider `CC(=O)N1CCc2c(c(N3CCCc4cc(-c5cnn(C)c5)c(C(F)F)cc43)nn2C2CCN(C(=O)CN3CCN(CC#Cc4cccc5c4n(C)c(=O)n5C4CCC(=O)NC4=O)CC3)CC2)C1` (stereo not drawn) [P-226, 3-(4-(3-(4-(2-(4-(5-Acetyl-3-(7-(difluoromethyl)-6-(1-methyl-1H-pyrazol-4-yl)-3,4-dihydroquinolin-1(2H)-yl)-4,5,6,7-tetrahydro-1H-pyrazolo[4,3-c]pyridin-1-yl)piperidin-1-yl)-2-oxoethyl)piperazin-1-yl)prop-1-yn-1-yl)-3-methyl-2-oxo-2,3-dihydro-1H-benzo[d]imidazol-1-yl)piperidine-2,6-dione], for which, in test [1] (Table 4), the IC50 worked out at 398 nM.

`CNC(=O)N1CCc2c(c(N3CCCc4cc(-c5cnn(CC(=O)NCCCCCNc6ccc7c(c6)C(=O)N(C6CCC(=O)NC6=O)C7=O)c5)c(C(F)F)cc43)nn2C2CCOCC2)C1` (stereo not drawn) [P-019, 3-(7-(difluoromethyl)-6-(1-(2-((5-((2-(2,6-dioxopiperidin-3-yl)-1,3-dioxoisoindolin-5-yl)amino)pentyl)amino)-2-oxoethyl)-1H-pyrazol-4-yl)-3,4-dihydroquinolin-1(2H)-yl)-N-methyl-1-(tetrahydro-2H-pyran-4-yl)-1,4,6,7-tetrahydro-5H-pyrazolo[4,3-c]pyridine-5-carboxamide]: in test [1] (3-fold serial dilution from 10 μM, FIG. 4), the “viability of LNCaP cells” value was “dose-dependently suppressed viability of LNCaP cells”.

On to `CC(=O)N1CCc2c(c(N3CCCc4cc(-c5cnn(C)c5)c(C(F)F)cc43)nn2C2CCN(C(=O)CCCN3CCC(Cn4c(=O)n(C5CCC(=O)NC5=O)c5ccccc54)CC3)CC2)C1` (stereo not drawn) [P-204, 3-(3-((1-(4-(4-(5-acetyl-3-(7-(difluoromethyl)-6-(1-methyl-1H-pyrazol-4-yl)-3,4-dihydroquinolin-1(2H)-yl)-4,5,6,7-tetrahydro-1H-pyrazolo[4,3-c]pyridin-1-yl)piperidin-1-yl)-4-oxobutyl)piperidin-4-yl)methyl)-2-oxo-2,3-dihydro-1H-benzo[d]imidazol-1-yl)piperidine-2,6-dione], for which the IC50 in test [1] (Table 4) is > 500 nM.

For the compound `CC(=O)N1CCc2c(c(N3CCCc4cc(-c5cnn(C)c5)c(C(F)F)cc43)nn2C2CCN(C(=O)CCCN3CCC(COc4ccc5c(c4)n(C)c(=O)n5C4CCC(=O)NC4=O)CC3)CC2)C1` (stereo not drawn) [P-206], the 50% inhibitory concentration (IC50) in test [1] (Table 4) was > 500 nM.

In the case of `CC(=O)N1CCc2c(c(N3CCCc4cc(-c5cnn(C)c5)c(C(F)F)cc43)nn2C2CCN(C(=O)CCC3CCN(CC(=O)Nc4cccc(NC5CCC(=O)NC5=O)c4)CC3)CC2)C1` (stereo not drawn) [P-261, 2-(4-(3-(4-(5-acetyl-3-(7-(difluoromethyl)-6-(1-methyl-1H-pyrazol-4-yl)-3,4-dihydroquinolin-1(2H)-yl)-4,5,6,7-tetrahydro-1H-pyrazolo[4,3-c]pyridin-1-yl)piperidin-1-yl)-3-oxopropyl)piperidin-1-yl)-N-(3-((2,6-dioxopiperidin-3-yl)amino)phenyl)acetamide], the IC50 in test [1] (Table 4) is > 500 nM.

In turn, `CNC(=O)N1CCc2c(c(N3CCCc4cc(-c5cnn(CC(=O)NCCCCCCCCCC(=O)NC(C(=O)N6C[C@H](O)CC6C(=O)NCc6ccc(-c7scnc7C)cc6)C(C)(C)C)c5)c(C(F)F)cc43)nn2C2CCOCC2)C1` (stereo in doubt) [P-049, 3-(7-(difluoromethyl)-6-(1-(2-((10-(((S)-1-((2S,4R)-4-hydroxy-2-((4-(4-methylthiazol-5-yl)benzyl)carbamoyl)pyrrolidin-1-yl)-3,3-dimethyl-1-oxobutan-2-yl)amino)-10-oxodecyl)amino)-2-oxoethyl)-1H-pyrazol-4-yl)-3,4-dihydroquinolin-1(2H)-yl)-N-methyl-1-(tetrahydro-2H-pyran-4-yl)-1,4,6,7-tetrahydro-5H-pyrazolo[4,3-c]pyridine-5-carboxamide] returned a 50% inhibitory concentration (IC50) in test [1] (Table 2) of 234 nM.

Consider `CC(=O)N1CCc2c(c(N3CCCc4cc(-c5cnn(C)c5)c(C(F)F)cc43)nn2C2CCN(C(=O)CC3CCN(CC(=O)Nc4cccc(NC5CCC(=O)NC5=O)c4)CC3)CC2)C1` (stereo not drawn) [P-260, 2-(4-(2-(4-(5-acetyl-3-(7-(difluoromethyl)-6-(1-methyl-1H-pyrazol-4-yl)-3,4-dihydroquinolin-1(2H)-yl)-4,5,6,7-tetrahydro-1H-pyrazolo[4,3-c]pyridin-1-yl)piperidin-1-yl)-2-oxoethyl)piperidin-1-yl)-N-(3-((2,6-dioxopiperidin-3-yl)amino)phenyl)acetamide], for which, in test [1] (Table 4), the IC50 was > 500 nM.

As for `CC(=O)N1CCc2c(c(N3CCCc4cc(-c5cnn(C)c5)c(C(F)F)cc43)nn2C2CCN(C(=O)CCN3CCN(CC(=O)Nc4cccc(NC5CCC(=O)NC5=O)c4)CC3)CC2)C1` (stereo not drawn) [P-258, 2-(4-(3-(4-(5-acetyl-3-(7-(difluoromethyl)-6-(1-methyl-1H-pyrazol-4-yl)-3,4-dihydroquinolin-1(2H)-yl)-4,5,6,7-tetrahydro-1H-pyrazolo[4,3-c]pyridin-1-yl)piperidin-1-yl)-3-oxopropyl)piperazin-1-yl)-N-(3-((2,6-dioxopiperidin-3-yl)amino)phenyl)acetamide], the IC50 in test [1] (Table 4) was > 500 nM.

As for `CC(=O)N1CCc2c(c(N3CCCc4cc(-c5cnn(C)c5)c(C(F)F)cc43)nn2C2CCN(CCN3CCC(COc4cccc5c4n(C)c(=O)n5C4CCC(=O)NC4=O)CC3)CC2)C1` (stereo not drawn) [P-255, 3-(4-((1-(2-(4-(5-Acetyl-3-(7-(difluoromethyl)-6-(1-methyl-1H-pyrazol-4-yl)-3,4-dihydroquinolin-1(2H)-yl)-4,5,6,7-tetrahydro-1H-pyrazolo[4,3-c]pyridin-1-yl)piperidin-1-yl)ethyl)piperidin-4-yl)methoxy)-3-methyl-2-oxo-2,3-dihydro-1H-benzo[d]imidazol-1-yl)piperidine-2,6-dione], the half-inhibitory concentration (IC50) in test [1] (Table 4) is > 500 nM.

Turning to `CNC(=O)N1CCc2c(c(N3CCCc4cc(-c5cnn(CC(=O)NCCOCCOCCOCCOCCOCCC(=O)N[C@H](C(=O)N6C[C@H](O)C[C@H]6C(=O)NCc6ccc(-c7scnc7C)cc6)C(C)(C)C)c5)c(C(F)F)cc43)nn2C2CCOCC2)C1` [P-082], the half-maximal inhibitory concentration (IC50) in test [1] (Table 3) was > 10000 nM.

With `CC(=O)N1CCc2c(c(N3CCCc4cc(-c5cnn(C)c5)c(C(F)F)cc43)nn2C2CCN(C(=O)CCCN3CCN(CC(=O)Nc4cccc(NC5CCC(=O)NC5=O)c4)CC3)CC2)C1` (stereo not drawn) [P-259, 2-(4-(4-(4-(5-acetyl-3-(7-(difluoromethyl)-6-(1-methyl-1H-pyrazol-4-yl)-3,4-dihydroquinolin-1(2H)-yl)-4,5,6,7-tetrahydro-1H-pyrazolo[4,3-c]pyridin-1-yl)piperidin-1-yl)-4-oxobutyl)piperazin-1-yl)-N-(3-((2,6-dioxopiperidin-3-yl)amino)phenyl)acetamide], in test [1] (Table 4), the concentration for half-maximal inhibition (IC50) is > 500 nM.

(Values after patent US20240100170A1, “CYCLIC-AMP RESPONSE ELEMENT BINDING PROTEIN (CBP) AND/OR ADENOVIRAL E1A BINDING PROTEIN OF 300 KDA (P300) DEGRADATION COMPOUNDS AND METHODS OF USE” (CULLGEN (SHANGHAI), INC., priority 2020, published 2024).)
